From patent US20250066363A1, “Bicyclic DGK Inhibitors” (Incyte Corporation, priority 2023, published 2025)

Key:
[1] = biological target: DGKζ (Homo sapiens (Human), UniProt Q13574); assay: In vitro DGKζ inhibition assay (ADP-Glo); type: biochemical; conditions: second column of Table A, head printed DGKα, presumably DGKζ; His-tagged human recombinant DGKζ 0.4 nM, 30 μM ATP, 20 μM DLG
Method: (§1) The DGKα and DGKζ biochemical reactions were performed using His-tagged human recombinant enzymes (Signal Chem, DGKα, #D21-10BH; DGKζ, #D30-1OH)) and DLG (Dilauroyl-sn-glycerol) lipid substrate (Signal Chem, #D430-59). ADP-Glo assay was performed using ADP-Glo™ kinase Assay kit (Promega, #V9104). The reactions were carried out in assay buffer containing 40 mM Tris, pH 7.5, 0.1% CHAPS, 0.1% Prionex, 40 mM NaCl, 5 mM MgCl2, 1 mM CaCl2, and 1 mM DTT. DGKα reactions contained 0.1 nM DGKα, 50 μM ATP, and 20 μM DLG. And DGKζ reactions contained 0.4 nM DGKζ, 30 μM ATP, and 20 μM DLG.
(§2) For compound inhibition studies, 40 nL test compound in DMSO was added to wells of white polystyrene plates in 384-well (Greiner, #784075) or 1536-well format (Greiner, #782075). Compounds were added with top concentration of 2 mM with 11 point, 3-fold dilution series. Enzyme solution (contains 2× DGK enzyme concentration in 1× assay buffer) was added to the plate in 2 μL/well volume, followed by 2 μL/well of substrate solution (contains 2× concentration of ATP and DLG substrate in 1× assay buffer). Plates were then centrifuged for 1 min at 1200 RPM and sealed or lidded. For 4 μL reaction volume, test compounds were therefore diluted 100× to final top concentration of 20 μM. After 90 minute incubation, reactions were quenched by addition of 2 μL/well Promega ADP-Glo Reagent, followed by centrifugation and lidding. After 60 min incubation, 2 μL/well Promega Kinase Detection Reagent was added, plates centrifuged, and incubated for 30 min. Plates were then read using Luminescence method on BMG PHERAstar FSX plate reader. Percent inhibition was calculated and IC50s were determined using 4-parameter fit in Genedata Screener. Labcyte Echo acoustic dispenser was used for compound addition, and Formulatrix Tempest liquid handler was used for all reagent dispenses.

[2] = biological target: DGKα (Homo sapiens (Human), UniProt P23743); assay: In vitro DGKα inhibition assay (ADP-Glo); type: biochemical; conditions: first column of Table A; His-tagged human recombinant DGKα 0.1 nM, 50 μM ATP, 20 μM DLG
Sequence of DGKα (P23743 whole entry): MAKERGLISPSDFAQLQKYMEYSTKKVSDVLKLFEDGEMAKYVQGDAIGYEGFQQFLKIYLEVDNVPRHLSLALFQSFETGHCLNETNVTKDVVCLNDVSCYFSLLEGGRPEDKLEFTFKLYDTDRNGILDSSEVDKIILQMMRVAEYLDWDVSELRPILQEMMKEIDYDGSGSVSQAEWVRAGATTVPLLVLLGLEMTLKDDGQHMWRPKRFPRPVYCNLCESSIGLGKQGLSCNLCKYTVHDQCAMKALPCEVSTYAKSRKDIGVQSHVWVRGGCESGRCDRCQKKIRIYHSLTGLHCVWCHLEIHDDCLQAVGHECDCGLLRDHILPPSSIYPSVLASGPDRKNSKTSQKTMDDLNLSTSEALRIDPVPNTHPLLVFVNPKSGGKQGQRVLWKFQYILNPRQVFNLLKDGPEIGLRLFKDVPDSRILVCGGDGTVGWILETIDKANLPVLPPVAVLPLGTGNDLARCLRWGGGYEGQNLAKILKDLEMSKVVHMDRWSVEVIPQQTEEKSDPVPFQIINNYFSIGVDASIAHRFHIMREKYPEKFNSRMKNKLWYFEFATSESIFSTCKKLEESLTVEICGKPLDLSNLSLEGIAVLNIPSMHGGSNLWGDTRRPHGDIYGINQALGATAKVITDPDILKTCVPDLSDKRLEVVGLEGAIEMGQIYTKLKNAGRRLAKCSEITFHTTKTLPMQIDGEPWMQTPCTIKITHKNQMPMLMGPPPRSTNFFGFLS
Method: as §1, §2

Sequence of DGKζ (Q13574 whole entry): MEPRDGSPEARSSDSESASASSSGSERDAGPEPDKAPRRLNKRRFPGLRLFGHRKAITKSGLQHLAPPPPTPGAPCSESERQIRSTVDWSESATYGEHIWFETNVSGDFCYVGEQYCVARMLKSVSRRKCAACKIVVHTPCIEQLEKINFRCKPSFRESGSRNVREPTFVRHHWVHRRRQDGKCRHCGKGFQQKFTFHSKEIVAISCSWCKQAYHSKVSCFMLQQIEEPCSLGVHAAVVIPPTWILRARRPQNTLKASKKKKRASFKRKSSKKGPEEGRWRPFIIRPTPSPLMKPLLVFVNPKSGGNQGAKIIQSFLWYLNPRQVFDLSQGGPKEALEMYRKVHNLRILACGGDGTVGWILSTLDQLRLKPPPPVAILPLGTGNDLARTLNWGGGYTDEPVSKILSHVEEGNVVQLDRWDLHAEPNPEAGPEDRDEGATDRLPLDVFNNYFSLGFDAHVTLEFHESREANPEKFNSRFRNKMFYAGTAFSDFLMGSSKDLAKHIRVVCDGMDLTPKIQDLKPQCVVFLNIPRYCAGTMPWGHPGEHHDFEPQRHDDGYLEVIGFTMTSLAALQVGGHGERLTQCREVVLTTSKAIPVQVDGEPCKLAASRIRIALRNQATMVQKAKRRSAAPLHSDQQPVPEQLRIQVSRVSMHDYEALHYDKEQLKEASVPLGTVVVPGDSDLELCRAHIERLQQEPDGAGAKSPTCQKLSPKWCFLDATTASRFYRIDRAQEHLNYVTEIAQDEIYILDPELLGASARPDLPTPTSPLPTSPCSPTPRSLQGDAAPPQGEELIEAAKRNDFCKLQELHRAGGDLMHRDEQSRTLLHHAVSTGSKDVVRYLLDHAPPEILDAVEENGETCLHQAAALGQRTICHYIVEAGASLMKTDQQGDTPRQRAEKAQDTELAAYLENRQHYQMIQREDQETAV

Row | IC50 [1] [µM] | IC50 [2] [µM] | SMILES
1 | ≤ 0.01 | ≤ 0.01 | C[C@@H]1CN(c2nc(=O)n(C)c3c2nnn3C[C@H]2CCCO2)[C@@H](C)CN1C(c1ccc(F)cc1)c1ccc(F)cc1 [Example 13, 7-((2S,5R)-4-(Bis(4-fluorophenyl)methyl)-2,5-dimethylpiperazin-1-yl)-4-methyl-3-(((R)-tetrahydrofuran-2-yl)methyl)-3,4-dihydro-5H-[1,2,3]triazolo[4,5-d]pyrimidin-5-one]
2 | ≤ 0.01 | ≤ 0.01 | Cc1nc2c(N3C[C@@H](C)N(C(CC(C)C)c4ccc(Cl)cc4)C[C@@H]3C)nc(=O)n(C)c2n1C[C@@H]1CCCO1 (stereo partly drawn) [Example 16, 6-((2S,5R)-4-(1-(4-Chlorophenyl)-3-methylbutyl)-2,5-dimethylpiperazin-1-yl)-3,8-dimethyl-9-(((S)-tetrahydrofuran-2-yl)methyl)-3,9-dihydro-2H-purin-2-one]
3 | ≤ 0.1 | ≤ 0.01 | CC[C@@H]1CN(c2nc(=O)n(C)c3c2nnn3C[C@H]2CCCO2)[C@@H](C)CN1[C@H](c1ccc(Cl)cc1)[C@@H]1CC1(F)F [Example 22, 7-((2S,5R)-4-((S)-(4-Chlorophenyl)((S)-2,2-difluorocyclopropyl)methyl)-5-ethyl-2-methylpiperazin-1-yl)-4-methyl-3-(((R)-tetrahydrofuran-2-yl)methyl)-3,4-dihydro-5H-[1,2,3]triazolo[4,5-d]pyrimidin-5-one]
4 | ≤ 0.01 | ≤ 0.01 | CC[C@@H]1CN(c2nc(=O)n(C)c3c2nnn3C[C@H]2CCCO2)[C@@H](C)CN1[C@@H](c1ccc(Cl)cc1)[C@@H]1CC1(F)F [Example 23, 7-((2S,5R)-4-((R)-(4-chlorophenyl)((S)-2,2-difluorocyclopropyl)methyl)-5-ethyl-2-methylpiperazin-1-yl)-4-methyl-3-(((R)-tetrahydrofuran-2-yl)methyl)-3,4-dihydro-5H-[1,2,3]triazolo[4,5-d]pyrimidin-5-one]
5 | ≤ 0.01 | ≤ 0.01 | CC[C@@H]1CN(c2nc(=O)n(C)c3c2nc(C)n3C[C@@H]2CCCO2)[C@@H](C)CN1[C@@H](CC)c1ccc(Cl)cc1 [Example 24, 6-((2S,5R)-4-((S)-1-(4-Chlorophenyl)propyl)-5-ethyl-2-methylpiperazin-1-yl)-3,8-dimethyl-9-(((S)-tetrahydrofuran-2-yl)methyl)-3,9-dihydro-2H-purin-2-one]
6 | ≤ 0.01 | ≤ 0.01 | CC[C@@H]1CN(c2nc(=O)n(C)c3c2nc(C)n3C[C@@H]2CCCO2)[C@@H](C)CN1[C@H](CC)c1ccc(Cl)cc1 [Example 25, 6-((2S,5R)-4-((R)-1-(4-chlorophenyl)propyl)-5-ethyl-2-methylpiperazin-1-yl)-3,8-dimethyl-9-(((S)-tetrahydrofuran-2-yl)methyl)-3,9-dihydro-2H-purin-2-one]
7 | ≤ 0.01 | ≤ 0.01 | CC[C@@H]1CN(c2nc(=O)n(C)c3c2nnn3C[C@H]2CCCO2)[C@@H](C)CN1[C@@H](CC)c1ccc(Cl)cc1 [Example 26, 7-((2S,5R)-4-((S)-1-(4-Chlorophenyl)propyl)-5-ethyl-2-methylpiperazin-1-yl)-4-methyl-3-(((R)-tetrahydrofuran-2-yl)methyl)-3,4-dihydro-5H-[1,2,3]triazolo[4,5-d]pyrimidin-5-one]
8 | ≤ 0.1 | ≤ 0.01 | CC[C@@H]1CN(c2nc(=O)n(C)c3c2nnn3C[C@H]2CCCO2)[C@@H](C)CN1[C@H](CC)c1ccc(Cl)cc1 [Example 27, 7-((2S,5R)-4-((R)-1-(4-chlorophenyl)propyl)-5-ethyl-2-methylpiperazin-1-yl)-4-methyl-3-(((R)-tetrahydrofuran-2-yl)methyl)-3,4-dihydro-5H-[1,2,3]triazolo[4,5-d]pyrimidin-5-one]
9 | ≤ 0.01 | ≤ 0.01 | CC[C@@H]1CN(c2nc(=O)n(C)c3c2nc(C)n3C[C@@H]2CCCO2)[C@@H](C)CN1[C@@H](CC)c1ccc(C(F)(F)F)cc1 [Example 28, 6-((2S,5R)-5-Ethyl-2-methyl-4-((S)-1-(4-(trifluoromethyl)phenyl)propyl)piperazin-1-yl)-3,8-dimethyl-9-(((S)-tetrahydrofuran-2-yl)methyl)-3,9-dihydro-2H-purin-2-one]
10 | ≤ 0.01 | ≤ 0.01 | CC[C@@H]1CN(c2nc(=O)n(C)c3c2nc(C)n3C[C@@H]2CCCO2)[C@@H](C)CN1[C@H](CC)c1ccc(C(F)(F)F)cc1 [Example 29, 6-((2S,5R)-5-ethyl-2-methyl-4-((R)-1-(4-(trifluoromethyl)phenyl)propyl)piperazin-1-yl)-3,8-dimethyl-9-(((S)-tetrahydrofuran-2-yl)methyl)-3,9-dihydro-2H-purin-2-one]
11 | ≤ 0.01 | ≤ 0.01 | CC[C@@H]1CN(c2nc(=O)n(C)c3c2nnn3C[C@H]2CCCO2)[C@@H](C)CN1[C@@H](CC)c1ccc(C(F)(F)F)cc1 [Example 30, 7-((2S,5R)-5-Ethyl-2-methyl-4-((S)-1-(4-(trifluoromethyl)phenyl)propyl)piperazin-1-yl)-4-methyl-3-(((R)-tetrahydrofuran-2-yl)methyl)-3,4-dihydro-5H-[1,2,3]triazolo[4,5-d]pyrimidin-5-one]
12 | ≤ 0.01 | ≤ 0.01 | CC[C@@H]1CN(c2nc(=O)n(C)c3c2nnn3C[C@H]2CCCO2)[C@@H](C)CN1[C@H](CC)c1ccc(C(F)(F)F)cc1 [Example 31, 7-((2S,5R)-5-ethyl-2-methyl-4-((R)-1-(4-(trifluoromethyl)phenyl)propyl)piperazin-1-yl)-4-methyl-3-(((R)-tetrahydrofuran-2-yl)methyl)-3,4-dihydro-5H-[1,2,3]triazolo[4,5-d]pyrimidin-5-one]
13 | ≤ 0.01 | ≤ 0.01 | C[C@@H]1CN(c2nc(=O)n(C)c3c2nnn3C[C@@H]2CCCO2)[C@@H](C)CN1C(c1ccc(C(F)(F)F)cn1)c1ccc(C(F)(F)F)cn1 [Example 32, 7-((2S,5R)-4-(Bis(5-(trifluoromethyl)pyridin-2-yl)methyl)-2,5-dimethylpiperazin-1-yl)-4-methyl-3-(((S)-tetrahydrofuran-2-yl)methyl)-3,4-dihydro-5H-[1,2,3]triazolo[4,5-d]pyrimidin-5-one]
14 | ≤ 0.01 | ≤ 0.01 | C[C@@H]1CN(c2nc(=O)n(C)c3c2nnn3C[C@H]2CCCO2)[C@@H](C)CN1C(c1ccc(C(F)(F)F)cn1)c1ccc(C(F)(F)F)cn1 [Example 33, 7-((2S,5R)-4-(Bis(5-(trifluoromethyl)pyridin-2-yl)methyl)-2,5-dimethylpiperazin-1-yl)-4-methyl-3-(((R)-tetrahydrofuran-2-yl)methyl)-3,4-dihydro-5H-[1,2,3]triazolo[4,5-d]pyrimidin-5-one]
15 | ≤ 0.1 | ≤ 0.01 | CC[C@@H]1CN(c2nc(=O)[nH]c3c2nc(C)n3C[C@@H]2CCCO2)[C@@H](C)CN1C(c1ccc(Cl)cc1)C1CC(F)(F)C1 (stereo partly drawn) [Example 36, 6-((2S,5R)-4-((4-Chlorophenyl)(3,3-difluorocyclobutyl)methyl)-5-ethyl-2-methylpiperazin-1-yl)-8-methyl-9-(((S)-tetrahydrofuran-2-yl)methyl)-3,9-dihydro-2H-purin-2-one]
16 | ≤ 0.01 | ≤ 0.01 | CC[C@@H]1CN(c2nc(=O)n(C)c3c2nc(C)n3C[C@@H]2CCCO2)[C@@H](C)CN1C(c1ccc(Cl)cc1)C1CC(F)(F)C1 (stereo partly drawn) [Example 37, 6-((2S,5R)-4-((4-Chlorophenyl)(3,3-difluorocyclobutyl)methyl)-5-ethyl-2-methylpiperazin-1-yl)-3,8-dimethyl-9-(((S)-tetrahydrofuran-2-yl)methyl)-3,9-dihydro-2H-purin-2-one]
